The values that follow come from patent publication US8309734B2 (Hoffmann-La Roche Inc., priority 2008, dated 2012).

In this experiment the target is T1, human GPBAR1 receptor (Homo sapiens, UniProt Q8TDU6).
T1 construct: expressed in transfected cells
T1 sequence (Q8TDU6 1-330): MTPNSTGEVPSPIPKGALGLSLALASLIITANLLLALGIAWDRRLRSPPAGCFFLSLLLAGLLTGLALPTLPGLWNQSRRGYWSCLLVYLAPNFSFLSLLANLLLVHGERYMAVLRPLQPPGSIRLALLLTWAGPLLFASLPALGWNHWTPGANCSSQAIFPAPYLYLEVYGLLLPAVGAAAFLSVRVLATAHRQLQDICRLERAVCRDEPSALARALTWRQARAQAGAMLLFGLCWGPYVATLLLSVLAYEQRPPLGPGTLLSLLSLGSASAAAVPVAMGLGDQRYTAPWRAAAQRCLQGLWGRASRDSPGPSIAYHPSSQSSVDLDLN
Nature of the experiment: functional cAMP assay in CHO-dhfr(minus) cells expressing human GPBAR1 receptors. In kind it is cell-based. The settings on record: cAMP increase (TR-FRET) in CHO-dhfr(minus) cells expressing human GPBAR1; compounds incubated 30 min at 30° C. (In general: cAMP levels reflect the balance of adenylyl cyclase and phosphodiesterase activity.)

The term EC50 denotes the midpoint of the concentration-response curve. A lower EC50 goes with higher potency in that assay. `O=C(O)c1ccc(CCc2cc(Cl)c(Oc3ncccc3C(=O)N3CCN(C4CC4)c4ccccc43)cc2Cl)cc1` [Example 170, 4-(2-{2,5-Dichloro-4-[3-(4-cyclopropyl-3,4-dihydro-2H-quinoxaline-1-carbonyl)-pyridin-2-yloxy]-phenyl}-ethyl)-benzoic acid] showed an EC50 of 69 nM.

As to `COc1cc(C(=O)O)ccc1CCc1cc(Cl)c(Oc2ncccc2C(=O)N2CCN(C3CC3)c3ccccc32)cc1Cl` [Example 171, 4-(2-{2,5-Dichloro-4-[3-(4-cyclopropyl-3,4-dihydro-2H-quinoxaline-1-carbonyl)-pyridin-2-yloxy]-phenyl}-ethyl)-3-methoxy-benzoic acid], the midpoint of the response, the EC50, lay at 102 nM.

Compound `O=C(O)/C=C/c1cc(Cl)c(Oc2ncccc2C(=O)N2CCN(C3CC3)c3ccccc32)cc1Cl` [Example 172, 3-{2,5-Dichloro-4-[3-(4-cyclopropyl-3,4-dihydro-2H-quinoxaline-1-carbonyl)-pyridin-2-yloxy]-phenyl}-acrylic acid] gave an EC50 of 132 nM. For `O=C(O)CCc1cc(Cl)c(Oc2ncccc2C(=O)N2CCN(C3CC3)c3ccccc32)cc1Cl` [Example 173, 3-{2,5-Dichloro-4-[3-(4-cyclopropyl-3,4-dihydro-2H-quinoxaline-1-carbonyl)-pyridin-2-yloxy]-phenyl}-propionic acid] the value was 47 nM; for `COC(=O)C/C=C/c1cc(Cl)c(Oc2ncccc2C(=O)N2CCN(C3CC3)c3ccccc32)cc1Cl` [Example 174, 4-{2,5-Dichloro-4-[3-(4-cyclopropyl-3,4-dihydro-2H-quinoxaline-1-carbonyl)-pyridin-2-yloxy]-phenyl}-but-3-enoic acid methyl ester], 29 nM; for `O=C(O)C/C=C/c1cc(Cl)c(Oc2ncccc2C(=O)N2CCN(C3CC3)c3ccccc32)cc1Cl` [Example 175, 4-{2,5-Dichloro-4-[3-(4-cyclopropyl-3,4-dihydro-2H-quinoxaline-1-carbonyl)-pyridin-2-yloxyl]-phenyl}-but-3-enoic acid], 843 nM. Under `O=C(O)CCCc1cc(Cl)c(Oc2ncccc2C(=O)N2CCN(C3CC3)c3ccccc32)cc1Cl` [Example 176, 4-{2,5-Dichloro-4-[3-(4-cyclopropyl-3,4-dihydro-2H-quinoxaline-1-carbonyl)-pyridin-2-yloxy]-phenyl}-butyric acid] stands 114 nM; under `O=C(O)CNC(=O)CCc1cc(Cl)c(Oc2ncccc2C(=O)N2CCN(C3CC3)c3ccccc32)cc1Cl` [Example 177, (3-{2,5-Dichloro-4-[3-(4-cyclopropyl-3,4-dihydro-2H-quinoxaline-1-carbonyl)-pyridin-2-yloxy]-phenyl}-propionylamino)-acetic acid], 63 nM.

For the compound `CN(CC(=O)O)C(=O)CCc1cc(Cl)c(Oc2ncccc2C(=O)N2CCN(C3CC3)c3ccccc32)cc1Cl` [Example 178, [(b 3-{2,5-Dichloro-4-[3-(4-cyclopropyl-3,4-dihydro-2H-quinoxaline-1-carbonyl)-pyridin-2-yloxy]-phenyl}-propionyl)-methyl-amino]-acetic acid], a half-maximal response (EC50) required 96 nM. `O=C(O)CCNC(=O)CCc1cc(Cl)c(Oc2ncccc2C(=O)N2CCN(C3CC3)c3ccccc32)cc1Cl` [Example 179, 3-(3-{2,5-Dichloro-4-[3-(4-cyclopropyl-3,4-dihydro-2H-quinoxaline-1-carbonyl)-pyridin-2-yloxy]-phenyl}-propionylamino)-propionic acid] yielded an EC50 of 41 nM.

Regarding `O=C(O)C1CCCN1C(=O)CCc1cc(Cl)c(Oc2ncccc2C(=O)N2CCN(C3CC3)c3ccccc32)cc1Cl` (stereo not shown) [Example 180, 1-(3-{2,5-Dichloro-4-[3-(4-cyclopropyl-3,4-dihydro-2H-quinoxaline-1-carbonyl)-pyridin-2-yloxy]-phenyl}-propionyl)-pyrrolidine-2-carboxylic acid], a half-maximal response (EC50) required 71 nM. For `O=C(O)CCNC(=O)CCCc1cc(Cl)c(Oc2ncccc2C(=O)N2CCN(C3CC3)c3ccccc32)cc1Cl` [Example 181, 3-(4-{2,5-Dichloro-4-[3-(4-cyclopropyl-3,4-dihydro-2H-quinoxaline-1-carbonyl)-pyridin-2-yloxy]-phenyl}-butyrylamino)-propionic acid] the value was 91 nM. Under `COC(=O)c1cc(Cl)c(Oc2ncccc2C(=O)N2CCN(C3CC3)c3ccccc32)cc1Cl` [Example 182, 2,5-Dichloro-4-[3-(4-cyclopropyl-3,4-dihydro-2H-quinoxaline-1-carbonyl)-pyridin-2-yloxy]-benzoic acid methyl ester] stands 181 nM; under `COC(=O)CNC(=O)c1cc(Cl)c(Oc2ncccc2C(=O)N2CCN(C3CC3)c3ccccc32)cc1Cl` [Example 183, {2,5-Dichloro-4-[3-(4-cyclopropyl-3,4-dihydro-2H-quinoxaline-1-carbonyl)-pyridin-2-yloxy]-benzoylamino}-acetic acid methyl ester], 341 nM. Under `O=C(c1ccccc1Oc1cc(Cl)ccc1Cl)N1CCN(C2CC2)c2ccccc21` [Example 184, (4-Cyclopropyl-3,4-dihydro-2H-quinoxalin-1-yl)-[2-(2,5-dichloro-phenoxy)-phenyl]-methanone] stands 22 nM. Take `O=C(c1ccncc1Oc1cc(Cl)ccc1Cl)N1CCOc2ccccc21` [Example 185, [3-(2,5-Dichloro-phenoxy)-pyridin-4-yl]-(2,3-dihydro-benzo[1,4]oxazin-4-yl)-methanone]: the response was half-maximal at 92 nM (EC50).
